From paper PMC8392721 (Journal of medicinal chemistry, 2021)

How the values were obtained:
[1] = biological target: hNatE (Homo sapiens, UniProt Q9GZZ1)
[2] = biological target: T1, hNatD (Homo sapiens, UniProt Q86UY6); test: biochemical
[3] = biological target: NatD (Homo sapiens, UniProt Q86UY6); test: biochemical
[4] = biological target: SpNatC (Schizosaccharomyces pombe, UniProt O74311); details: at 10 μM; n = 3
[5] = tested on: SpNatC; details: from no inhibition at 10 μM
[6] = biological target: T2, hMOF (Homo sapiens, UniProt Q9H7Z6); test: Selectivity assay, hMOF; assay type: biochemical
T2 sequence (Q9H7Z6 1-458): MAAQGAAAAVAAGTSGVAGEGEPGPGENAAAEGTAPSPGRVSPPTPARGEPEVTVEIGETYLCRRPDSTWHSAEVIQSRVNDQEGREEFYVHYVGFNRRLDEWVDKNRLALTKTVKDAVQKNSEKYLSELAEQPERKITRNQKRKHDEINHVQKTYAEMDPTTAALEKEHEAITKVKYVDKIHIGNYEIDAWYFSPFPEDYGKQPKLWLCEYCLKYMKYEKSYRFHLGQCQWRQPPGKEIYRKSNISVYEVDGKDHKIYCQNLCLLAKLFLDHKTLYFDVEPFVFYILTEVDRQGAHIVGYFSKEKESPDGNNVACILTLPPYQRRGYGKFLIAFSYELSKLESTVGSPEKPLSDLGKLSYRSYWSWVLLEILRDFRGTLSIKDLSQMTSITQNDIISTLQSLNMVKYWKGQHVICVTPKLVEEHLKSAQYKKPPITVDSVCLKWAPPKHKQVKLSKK

[7] = biological target: hNatB (Homo sapiens, UniProt P61599)
Sequence of hNatB (P61599 1-163 limits assumed): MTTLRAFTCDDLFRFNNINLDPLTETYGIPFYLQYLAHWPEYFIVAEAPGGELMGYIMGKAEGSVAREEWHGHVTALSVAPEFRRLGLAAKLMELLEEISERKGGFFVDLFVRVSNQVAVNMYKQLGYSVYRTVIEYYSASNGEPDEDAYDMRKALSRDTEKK
Sequence of hNatB (Q14CX7 whole entry partner): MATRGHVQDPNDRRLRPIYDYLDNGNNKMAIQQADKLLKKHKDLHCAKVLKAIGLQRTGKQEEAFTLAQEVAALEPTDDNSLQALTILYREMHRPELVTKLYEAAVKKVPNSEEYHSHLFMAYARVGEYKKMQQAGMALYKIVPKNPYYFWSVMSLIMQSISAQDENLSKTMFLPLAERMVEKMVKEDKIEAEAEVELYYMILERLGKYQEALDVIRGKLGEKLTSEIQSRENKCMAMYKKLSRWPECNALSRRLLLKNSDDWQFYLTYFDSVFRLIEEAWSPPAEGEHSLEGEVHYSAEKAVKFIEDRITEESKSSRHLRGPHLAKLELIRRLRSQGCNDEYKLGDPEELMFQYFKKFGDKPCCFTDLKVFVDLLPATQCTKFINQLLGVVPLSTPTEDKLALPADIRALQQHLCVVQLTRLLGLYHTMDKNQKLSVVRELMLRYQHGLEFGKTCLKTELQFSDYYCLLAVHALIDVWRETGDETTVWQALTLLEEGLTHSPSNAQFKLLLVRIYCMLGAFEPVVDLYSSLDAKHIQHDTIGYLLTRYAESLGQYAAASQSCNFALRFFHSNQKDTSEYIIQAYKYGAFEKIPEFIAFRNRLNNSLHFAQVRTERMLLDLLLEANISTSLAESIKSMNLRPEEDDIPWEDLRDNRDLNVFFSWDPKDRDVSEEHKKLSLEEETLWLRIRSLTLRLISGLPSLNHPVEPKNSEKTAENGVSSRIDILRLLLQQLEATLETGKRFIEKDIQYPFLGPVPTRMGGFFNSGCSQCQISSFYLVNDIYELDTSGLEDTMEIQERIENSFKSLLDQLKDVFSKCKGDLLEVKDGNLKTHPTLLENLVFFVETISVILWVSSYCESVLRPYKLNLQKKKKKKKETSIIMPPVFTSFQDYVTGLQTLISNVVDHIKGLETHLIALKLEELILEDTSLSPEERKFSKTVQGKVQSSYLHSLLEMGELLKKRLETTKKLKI

[8] = biological target: T1, hNatD; details: radioactive assay; acetyl versus propionyl linker, tripeptide SGR
[9] = biological target: PCAF (Homo sapiens, UniProt Q92831)
Sequence of PCAF (Q92831 whole entry): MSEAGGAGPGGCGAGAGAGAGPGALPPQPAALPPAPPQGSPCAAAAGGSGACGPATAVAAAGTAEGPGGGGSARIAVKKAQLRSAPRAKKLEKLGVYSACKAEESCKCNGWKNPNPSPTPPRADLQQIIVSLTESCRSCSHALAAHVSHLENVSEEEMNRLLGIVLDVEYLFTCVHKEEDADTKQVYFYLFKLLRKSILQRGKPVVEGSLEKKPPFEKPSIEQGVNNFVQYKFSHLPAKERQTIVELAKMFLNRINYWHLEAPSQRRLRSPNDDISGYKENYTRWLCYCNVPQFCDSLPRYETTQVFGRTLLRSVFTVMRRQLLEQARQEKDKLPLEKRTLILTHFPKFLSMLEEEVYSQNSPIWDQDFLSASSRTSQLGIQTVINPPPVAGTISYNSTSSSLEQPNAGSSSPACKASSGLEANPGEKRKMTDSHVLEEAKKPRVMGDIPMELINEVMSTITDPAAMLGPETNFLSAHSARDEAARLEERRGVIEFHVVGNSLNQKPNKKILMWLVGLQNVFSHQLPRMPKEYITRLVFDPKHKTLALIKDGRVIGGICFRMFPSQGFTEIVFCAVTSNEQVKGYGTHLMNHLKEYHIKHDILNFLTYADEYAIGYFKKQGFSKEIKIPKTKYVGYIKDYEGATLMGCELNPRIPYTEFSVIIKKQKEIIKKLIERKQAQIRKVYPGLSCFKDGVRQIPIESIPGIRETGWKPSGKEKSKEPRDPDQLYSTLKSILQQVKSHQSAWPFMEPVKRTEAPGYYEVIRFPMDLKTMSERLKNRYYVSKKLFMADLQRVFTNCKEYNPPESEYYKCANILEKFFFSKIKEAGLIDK

[10] = biological target: T3, hNatA (Homo sapiens, UniProt P41227); test: Selectivity assay, NatA; assay type: biochemical
T3 sequence (P41227 1-160 limits assumed): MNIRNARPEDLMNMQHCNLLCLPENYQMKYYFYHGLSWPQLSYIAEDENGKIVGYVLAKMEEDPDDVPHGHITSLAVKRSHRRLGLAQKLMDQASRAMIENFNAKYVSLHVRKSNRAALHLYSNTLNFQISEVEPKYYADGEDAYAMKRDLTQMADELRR
T3 sequence (Q9BXJ9 1-866 partner): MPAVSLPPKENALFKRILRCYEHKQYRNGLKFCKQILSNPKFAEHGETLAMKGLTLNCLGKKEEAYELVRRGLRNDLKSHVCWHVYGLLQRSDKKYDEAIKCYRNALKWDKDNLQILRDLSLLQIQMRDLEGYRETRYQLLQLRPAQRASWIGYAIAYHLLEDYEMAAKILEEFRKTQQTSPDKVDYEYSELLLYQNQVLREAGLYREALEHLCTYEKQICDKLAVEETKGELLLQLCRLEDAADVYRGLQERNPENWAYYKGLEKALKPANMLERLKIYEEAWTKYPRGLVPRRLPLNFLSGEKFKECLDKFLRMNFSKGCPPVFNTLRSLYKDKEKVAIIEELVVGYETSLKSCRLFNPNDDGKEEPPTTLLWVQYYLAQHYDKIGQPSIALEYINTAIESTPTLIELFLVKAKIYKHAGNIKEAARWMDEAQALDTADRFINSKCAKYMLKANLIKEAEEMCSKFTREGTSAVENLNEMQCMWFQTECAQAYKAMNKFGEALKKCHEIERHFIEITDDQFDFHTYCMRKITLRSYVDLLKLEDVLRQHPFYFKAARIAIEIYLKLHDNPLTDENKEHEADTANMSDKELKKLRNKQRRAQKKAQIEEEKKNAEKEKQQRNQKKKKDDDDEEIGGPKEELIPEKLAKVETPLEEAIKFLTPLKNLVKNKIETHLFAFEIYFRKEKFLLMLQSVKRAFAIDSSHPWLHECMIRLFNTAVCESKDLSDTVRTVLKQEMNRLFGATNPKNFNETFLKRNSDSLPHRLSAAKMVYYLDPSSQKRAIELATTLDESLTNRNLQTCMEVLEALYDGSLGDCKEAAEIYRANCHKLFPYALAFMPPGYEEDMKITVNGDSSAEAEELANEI

Sequence of hNatE (Q9GZZ1 whole entry, one chain of several): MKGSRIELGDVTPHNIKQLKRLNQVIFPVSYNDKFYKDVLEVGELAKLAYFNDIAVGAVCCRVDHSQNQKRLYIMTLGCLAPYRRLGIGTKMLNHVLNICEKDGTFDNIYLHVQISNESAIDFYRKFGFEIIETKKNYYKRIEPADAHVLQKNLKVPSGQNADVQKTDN
Sequence of SpNatC (Schizosaccharomyces pombe, UniProt O74311) (O74311 whole entry): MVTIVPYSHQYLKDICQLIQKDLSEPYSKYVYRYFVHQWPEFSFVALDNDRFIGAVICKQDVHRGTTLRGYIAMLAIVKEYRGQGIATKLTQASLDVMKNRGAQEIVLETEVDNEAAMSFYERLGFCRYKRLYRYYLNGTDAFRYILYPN

Question: With `CC(C)(COP(=O)(O)OP(=O)(O)OC[C@H]1O[C@@H](n2cnc3c(N)ncnc32)[C@H](O)[C@@H]1OP(=O)(O)O)[C@@H](O)C(=O)NCCC(=O)NCCSCC(=O)N[C@@H](CO)C(=O)NCC(=O)N[C@@H](CCCNC(=N)N)C(N)=O` [Compound 7, CoA-C2-SGR] as the molecule, how does the “inhibition towards NatE” value ([1]; at 10 μM, n = 3) read?
Answer: Its value is “did not show any inhibition”.

Question: And the “selectivity for NatD over NatE” value ([1]; from no inhibition at 10 μM)?
Answer: The value was “over 10,000 fold”.

Question: What about the IC50 [2] of the same molecule?
Answer: The IC50 was 16 ± 4.9 nM.

Question: And the IC50 [3]?
Answer: The IC50 was 29 ± 5.6 nM.

Question: And the “inhibition towards NatC” value [4]?
Answer: The value was “did not show any inhibition”.

Question: And the “selectivity for NatD over NatC” value [5]?
Answer: Its value is “over 10,000 fold”.

Question: What about the IC50 [6] of the same molecule?
Answer: The IC50 was > 100 nM.

Question: What about the “inhibition towards NatB” value ([7]; at 10 μM, n = 3) of the same molecule?
Answer: The value was “did not show any inhibition”.

Question: What about the “selectivity for NatD over NatB” value ([7]; from no inhibition at 10 μM) of the same molecule?
Answer: Its value is “over 10,000 fold”.

Question: What about the “fold more potent than 8” value [8] of the same molecule?
Answer: Its value is 2 fold.

Question: What about the “inhibition towards PCAF” value ([9]; at 10 μM, n = 3) of the same molecule?
Answer: Its value is “did not show any inhibition”.

Question: What about the “selectivity for NatD over PCAF” value ([9]; from no inhibition at 10 μM) of the same molecule?
Answer: The value was “over 10,000 fold”.

Question: And the IC50 [10]?
Answer: Its IC50 is > 100 nM.
